Measurements taken from patent US12679878B2, “CRF2 receptor agonists and their use in therapy” (SANOFI, priority 2020, dated 2026).
Read-outs that look alike come from different tables or passages of the source. Starred links: 1 amine or outer side, 2 acyl side, 3 side chain; linkers in the order of their positions; H or OH if unused. Residues, ends and D or L forms follow the SMILES beside them. Groups on a side chain read outwards from the residue. *: point of attachment. C18 diacid = O=C(O)CCCCCCCCCCCCCCCCC(=O)*; γGlu = O=C(O)[C@H](CCC(=O)[*:2])N[*:1]; Palmitoyl = CCCCCCCCCCCCCCCC(=O)*; AEEA = NCCOCCOCC(=O)O

Columns and labels:
[1] = molecular target: T1, human CRF2α receptor (Homo sapiens, UniProt Q13324); assay: cAMP agonism at human CRF2 α receptor in TeloHEAC cells (Example 7); assay type: cell-based; conditions: cAMP HTRF, TeloHEAC cells stably expressing human CRF2 α
T1 construct: expressed in transfected cells; host or cells: TeloHEAC
T1 sequence (Q13324 1-411): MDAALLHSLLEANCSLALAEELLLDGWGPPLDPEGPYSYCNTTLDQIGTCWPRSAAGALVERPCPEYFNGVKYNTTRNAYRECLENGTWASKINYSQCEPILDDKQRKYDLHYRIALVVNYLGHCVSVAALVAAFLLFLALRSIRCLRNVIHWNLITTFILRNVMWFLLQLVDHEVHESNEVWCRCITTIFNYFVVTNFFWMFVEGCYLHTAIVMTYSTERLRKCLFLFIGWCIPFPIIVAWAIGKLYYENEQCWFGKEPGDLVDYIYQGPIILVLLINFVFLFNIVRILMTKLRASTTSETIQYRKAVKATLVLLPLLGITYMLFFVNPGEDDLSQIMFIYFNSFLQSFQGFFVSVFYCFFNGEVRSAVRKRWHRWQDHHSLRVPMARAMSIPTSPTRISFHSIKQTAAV
Outline: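 Thawed frozen stably transfected cells in HBSS/20 mM HEPES (0% or 0.1% HSA) plus 2 mM IBMX were exposed to compound at 2000 cells/well for 30 min at room temperature. Intracellular cAMP was read by HTRF (665/620 nm ratio) after 1 h lysis; EC50 was derived with 1000 nM urocortin 2 set as 100%.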

[2] = molecular target: T2, recombinant human CRF2 (Homo sapiens, UniProt Q13324); assay: CRF2a (h) agonist radioligand binding, [125]sauvagine, HEK cell membranes (Example 11); conditions: for nH (Hill coefficient): competition with [125]sauvagine 0.1 nM
T2 construct: expressed in transfected cells; host or cells: HEK
T2 sequence (Q13324 1-411): T1 sequence (Q13324 1-411)
Protocol: Receptor binding of the compounds was assessed using a CRF2a (h) (agonist radioligand) assay.
HEK cells expressing recombinant human CRF2 were used as a source of receptor for membrane preparation.
IC50 values (concentration causing a half-maximal inhibition of control specific binding) and Hill coefficients (nH) were determined by non-linear regression analysis of the competition curves generated with mean replicate values using Hill equation curve fitting. The inhibition constants (Ki) were calculated using the Cheng Prusoff equation [Ki=IC50/(1+L/KD) where L is the concentration of radioligand in the assay, and KD is the affinity of the radioligand for the receptor). A Scatchard plot was used to determine the KD.

[3] = Solubility in buffer systems by UPLC-UV (Example 13); assay type: physicochemical
Outline: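 Quantitation used UV peak area from UPLC of the 1:10-diluted supernatant, set against a reference-compound standard curve with extinction coefficients adjusted for amino acid sequence.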

[4] = system: rat CRF2R α receptor; assay: cAMP agonism at rat CRF2R α receptor in A7R5 rat aortic smooth muscle cells (Example 8); assay type: cell-based; conditions: cAMP HTRF, A7R5 rat aortic smooth muscle cell line, 0% HSA
Outline: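 Potency (EC50) is the concentration reaching half-maximal activation, with responses scaled so that 1000 nM urocortin 2 equals 100%. Intracellular cAMP was quantified by homogeneous time-resolved fluorescence at 665/620 nm, 1 h after lysis-buffer reagents. Compound stimulation lasted 30 min at room temperature on 2000 IBMX-treated (2 mM) cells per well in HEPES-buffered HBSS.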

[5] = molecular target: T3, CRF1R receptor (Homo sapiens, UniProt P34998); assay: cAMP activity at anti-target CRF1R, CRF1R-overexpression CHO cell line (Example 9); assay type: cell-based
T3 construct: host or cells: CHO-K1 clone 2
T3 sequence (P34998 24-415): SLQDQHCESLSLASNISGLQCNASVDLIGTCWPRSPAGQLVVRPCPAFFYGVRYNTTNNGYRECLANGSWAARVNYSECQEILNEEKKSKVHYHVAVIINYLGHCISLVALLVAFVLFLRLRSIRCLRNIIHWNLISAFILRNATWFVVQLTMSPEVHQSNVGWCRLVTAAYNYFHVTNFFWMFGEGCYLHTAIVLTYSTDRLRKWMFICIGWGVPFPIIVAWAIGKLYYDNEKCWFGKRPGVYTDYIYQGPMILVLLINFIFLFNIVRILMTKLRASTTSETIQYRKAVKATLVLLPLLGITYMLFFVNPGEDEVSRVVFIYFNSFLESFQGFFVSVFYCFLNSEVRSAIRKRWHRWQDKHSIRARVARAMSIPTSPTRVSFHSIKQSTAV
Outline: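 Using thawed CRF1R-overexpressing CHO cells at 2000 per well, compound is applied for 30 min at RT in HBSS/HEPES buffer with IBMX. Cellular cAMP content is determined via HTRF, and percent activity is calculated against 1000 nM UCN2 defined as 100%.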

[6] = Chemical stability, purity loss by UPLC-UV after 28 days at 40° C. vs 5° C., pH 4.5 acetate buffer (Example 12); assay type: physicochemical; conditions: 28 days 40° C. vs 5° C.; pH 4.5, 20 mM acetate buffer; 300 μM
Outline: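 300 μM compound (purity-corrected) in 20 mM acetate buffer, pH 4.5, stored 28 days at 5 and 40° C. Purity by UPLC-UV as compound peak area over total peak area. Value is the purity difference between 5° C. and 40° C. samples, relative to the 5° C. purity, in percent.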

[7] = 0% HSA, read-out: EC50 [nM], 0% HSA
[8] = pH 7.4, Solubility in Buffer C [mg/ml]

Compound | EC50 [1, 7] [nM] | nH (Hill coefficient) [2] | solubility at 1 h [3, 8] [µg/mL] | EC50 ([1]; 0.1% HSA, read-out: EC50 [nM], 0.1% HSA) [nM] | EC50 [4] [nM] | Emax ([5]; CHO) [%] | Ki [2] [nM] | solubility at 1 h ([3]; Buffer B: 100 mM acetate buffer, pH 4.5, 2.7 mg/ml m-cresol, target 10 mg/ml, read-out: Solubility in Buffer B) [µg/mL] | solubility at 1 h ([3]; Buffer C: 100 mM phosphate buffer, pH 7.4, target 10 mg/ml, read-out: Solubility in Buffer C) [µg/mL] | EC50 ([5]; 0% HSA, CRF1R-overexpression CHO cell line) [nM] | Emax ([5]; CRF1R-overexpression CHO cell line, read-out: Emax (%)) [%] | Relative purity loss [%] [6] [%] | solubility at 1 h ([3]; pH 4.5, Solubility in Buffer B [mg/ml]) [µg/mL]
CCCCCCCCCCCCCCCC(=O)N[C@@H](CCC(=O)NCCCC[C@H](NC(=O)[C@H](CC(C)C)NC(=O)[C@H](CCCCN)NC(=O)[C@@H](NC(=O)[C@@H]1CCCN1C(=O)[C@@H](NC(=O)[C@H](CC(=O)O)NC(=O)[C@H](CC(C)C)NC(=O)[C@H](CO)NC(=O)[C@H](CC(C)C)NC(=O)[C@@H](NC(=O)[C@@H](N)[C@@H](C)CC)C(C)C)C(C)C)[C@@H](C)CC)C(=O)N[C@@H](CCCCN)C(=O)N[C@H](C(=O)N[C@@H](CC(C)C)C(=O)N[C@@H](CC(C)C)C(=O)N[C@@H](CCC(=O)O)C(=O)N[C@@H](CCC(N)=O)C(=O)N[C@@H](CCC(=O)O)C(=O)N[C@@H](CCCCN)C(=O)N[C@@H](CCC(N)=O)C(=O)N[C@@H](CCCCN)C(=O)N[C@@H](CCCCN)C(=O)N[C@@H](CCC(N)=O)C(=O)N[C@@H](CCCNC(=N)N)C(=O)N[C@@H](CCC(=O)O)C(=O)N[C@@H](CCC(N)=O)C(=O)N[C@@H](C)C(=O)N[C@@H](CCC(=O)O)C(=O)N[C@H](C(=O)N[C@@H](CC(N)=O)C(=O)N[C@@H](CCCCN)C(=O)N[C@@H](CCC(N)=O)C(=O)N[C@H](C(=O)N[C@@H](CC(C)C)C(=O)N[C@@H](C)C(=O)N[C@@H](CCC(N)=O)C(=O)N[C@H](C(N)=O)C(C)C)[C@@H](C)CC)[C@@H](C)O)[C@@H](C)CC)C(=O)O [compound 17] (H-IVLSLDVPIKLK([γGlu-Palmitoyl])KILLEQEKQKKQREQAETNKQILAQV-NH2; N-terminus assumed) | 0.02 | 1.5 | > 10700 |  |  |  |  |  |  |  |  |  | 
CC[C@H](C)[C@H](NC(=O)[C@H](CCC(N)=O)NC(=O)[C@H](CCC(=O)O)NC(=O)[C@H](CC(C)C)NC(=O)[C@H](CC(C)C)NC(=O)[C@H](CCC(N)=O)NC(=O)[C@H](CCCCN)NC(=O)[C@H](CC(N)=O)NC(=O)[C@H](CCCCN)NC(=O)[C@H](CCC(=O)O)NC(=O)[C@H](C)NC(=O)[C@H](CCC(N)=O)NC(=O)[C@H](CCC(N)=O)NC(=O)[C@H](CCCNC(=N)N)NC(=O)[C@H](CCC(=O)O)NC(=O)[C@H](CCCCN)NC(=O)[C@H](CCCCN)NC(=O)[C@H](CCC(N)=O)NC(=O)[C@H](CCCCN)NC(=O)[C@H](CCC(N)=O)NC(=O)[C@H](CCC(N)=O)NC(=O)[C@H](CCCCN)NC(=O)[C@H](CC(C)C)NC(=O)[C@H](CC(C)C)NC(=O)[C@@H](NC(=O)[C@H](CCC(N)=O)NC(=O)[C@H](CCCCNC(=O)COCCOCCNC(=O)COCCOCCNC(=O)CC[C@H](NC(=O)CCCCCCCCCCCCCCCCC(=O)O)C(=O)O)NC(=O)[C@@H](NC(=O)[C@H](CCCCN)NC(=O)[C@@H](NC(=O)[C@@H]1CCCN1C(=O)[C@@H](NC(=O)[C@H](CC(=O)O)NC(=O)[C@H](CC(C)C)NC(=O)[C@H](CO)NC(=O)[C@H](CC(C)C)NC(=O)[C@@H](NC(=O)[C@@H](N)Cc1ccccc1)[C@@H](C)O)C(C)C)[C@@H](C)O)[C@@H](C)CC)[C@@H](C)CC)C(N)=O [compound 51] (H-FTLSLDVPTKIK([AEEA-AEEA-γGlu-C18 diacid])QILLKQQKQKKERQQAEKNKQLLEQI-NH2; N-terminus assumed) | 0.32 | 0.8 |  | 21.4 | 0.87 | 3.38 | 4.3 | > 8800 | > 7700 |  |  |  | 
CC[C@H](C)[C@H](N)C(=O)N[C@H](C(=O)N[C@@H](CC(C)C)C(=O)N[C@@H](CO)C(=O)N[C@@H](CC(C)C)C(=O)N[C@@H](CC(=O)O)C(=O)N[C@H](C(=O)N1CCC[C@H]1C(=O)N[C@H](C(=O)N[C@@H](CCCCN)C(=O)N[C@@H](CC(C)C)C(=O)N[C@@H](CCCCNC(=O)COCCOCCNC(=O)COCCOCCNC(=O)CC[C@H](NC(=O)CCCCCCCCCCCCCCCCC(=O)O)C(=O)O)C(=O)N[C@@H](CCC(N)=O)C(=O)N[C@H](C(=O)N[C@@H](CC(C)C)C(=O)N[C@@H](CC(C)C)C(=O)N[C@@H](CCC(=O)O)C(=O)N[C@@H](CCC(N)=O)C(=O)N[C@@H](CCC(=O)O)C(=O)N[C@@H](CCCNC(=N)N)C(=O)N[C@@H](CCC(N)=O)C(=O)N[C@@H](CCCCN)C(=O)N[C@@H](CCCCN)C(=O)N[C@@H](CCC(N)=O)C(=O)N[C@@H](CCCNC(=N)N)C(=O)N[C@@H](CCC(=O)O)C(=O)N[C@@H](CCC(N)=O)C(=O)N[C@@H](C)C(=O)N[C@@H](CCC(=O)O)C(=O)N[C@H](C(=O)N[C@@H](CC(N)=O)C(=O)N[C@@H](CCCCN)C(=O)N[C@@H](CCC(N)=O)C(=O)N[C@H](C(=O)N[C@@H](CC(C)C)C(=O)N[C@@H](C)C(=O)N[C@@H](CCC(N)=O)C(=O)N[C@H](C(N)=O)C(C)C)[C@@H](C)CC)[C@@H](C)O)[C@@H](C)CC)[C@@H](C)CC)C(C)C)C(C)C [compound 68] (H-IVLSLDVPIKLK([AEEA-AEEA-γGlu-C18 diacid])QILLEQERQKKQREQAETNKQILAQV-NH2; N-terminus assumed) | 0.2 | 0.8 | > 8900 |  | 1.74 |  |  |  |  | > 1000 | 12.3 | 6.00 | > 9800
